This is an account of results in PMC11269473, “Monoamine oxidase inhibition properties of 2,1-benzisoxazole derivatives” (Molecular Diversity, 2023).

Molecules are shown by their SMILES. Like-named read-outs stand apart in the source and are kept apart here.

For data set [1], the target named is T1, recombinant human MAO-B (Homo sapiens, UniProt P27338).
T1 construct: purchased Sigma-Aldrich; host or cells: insect cells (microsomes)
T1 sequence (P27338 1-520): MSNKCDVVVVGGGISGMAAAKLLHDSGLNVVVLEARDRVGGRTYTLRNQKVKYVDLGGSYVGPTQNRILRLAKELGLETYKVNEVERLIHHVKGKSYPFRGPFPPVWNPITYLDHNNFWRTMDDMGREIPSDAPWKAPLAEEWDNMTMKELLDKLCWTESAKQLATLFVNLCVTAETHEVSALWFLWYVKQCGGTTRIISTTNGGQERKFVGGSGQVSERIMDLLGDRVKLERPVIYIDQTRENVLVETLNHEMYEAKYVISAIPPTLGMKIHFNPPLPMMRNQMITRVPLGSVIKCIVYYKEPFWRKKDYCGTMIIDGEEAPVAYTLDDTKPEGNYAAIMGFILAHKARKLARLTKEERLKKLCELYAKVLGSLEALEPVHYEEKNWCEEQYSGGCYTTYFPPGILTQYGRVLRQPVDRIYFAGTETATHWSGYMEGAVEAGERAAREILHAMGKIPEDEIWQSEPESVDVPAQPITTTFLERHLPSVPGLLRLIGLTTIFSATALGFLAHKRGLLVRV
The data set can be described thus: MAO-B inhibition, IC50 determination with kynuramine as substrate (fluorescence of 4-hydroxyquinoline). The format is biochemical. The following applies: for SI (selectivity index): SI = IC50(MAO-A)/IC50(MAO-B); for IC50: recombinant human MAO-B, 50 µM kynuramine, mean ± SD of triplicate, NI = no inhibition observed at 100 µM. How it is done:
(§1) The MAO inhibition properties of the 2,1-benzisoxazole derivatives were investigated using the commercially available recombinant human MAO-A and MAO-B enzymes with kynuramine serving as substrate. MAO oxidizes kynuramine to yield 4-hydroxyquinoline, which was measured by fluorescence spectrophotometry.
(§2) For the MAO inhibition studies, a Varian Cary Eclipse fluorescence spectrophotometer was employed. Microsomes from insect cells containing recombinant human MAO-A and MAO-B (5 mg protein/mL) and kynuramine dihydrobromide were obtained from Sigma-Aldrich.
IC50 values for the inhibition of MAO were measured as described previously. Microsomes from insect cells containing recombinant human MAO-A and MAO-B (5 mg protein/mL) served as enzyme sources (Sigma-Aldrich) while kynuramine was used as non-specific MAO substrate. The enzyme reactions (200 µL reactions prepared in 96-well microtiter plates) contained phosphate buffer (100 mM, pH 7.4), 50 µM kynuramine and the test inhibitors at concentrations of 0.003–100 µM. […] The concentration of 4-hydroxyquinoline, the product of kynuramine oxidation by MAO, was measured by fluorescence spectrophotometry (λex = 310 nm; λem = 400 nm). IC50 values were estimated from sigmoidal plots of enzyme catalytic rate versus the inhibitor concentration (log[I]) which were constructed with the Prism software package (GraphPad). IC50 values were estimated in triplicate determinations from these plots and are expressed as mean ± standard deviation (SD).

In data set [2] the target is T2, recombinant human MAO-A (Homo sapiens, UniProt P21397).
T2 construct: purchased Sigma-Aldrich; host or cells: insect cells (microsomes)
T2 sequence (P21397 1-527): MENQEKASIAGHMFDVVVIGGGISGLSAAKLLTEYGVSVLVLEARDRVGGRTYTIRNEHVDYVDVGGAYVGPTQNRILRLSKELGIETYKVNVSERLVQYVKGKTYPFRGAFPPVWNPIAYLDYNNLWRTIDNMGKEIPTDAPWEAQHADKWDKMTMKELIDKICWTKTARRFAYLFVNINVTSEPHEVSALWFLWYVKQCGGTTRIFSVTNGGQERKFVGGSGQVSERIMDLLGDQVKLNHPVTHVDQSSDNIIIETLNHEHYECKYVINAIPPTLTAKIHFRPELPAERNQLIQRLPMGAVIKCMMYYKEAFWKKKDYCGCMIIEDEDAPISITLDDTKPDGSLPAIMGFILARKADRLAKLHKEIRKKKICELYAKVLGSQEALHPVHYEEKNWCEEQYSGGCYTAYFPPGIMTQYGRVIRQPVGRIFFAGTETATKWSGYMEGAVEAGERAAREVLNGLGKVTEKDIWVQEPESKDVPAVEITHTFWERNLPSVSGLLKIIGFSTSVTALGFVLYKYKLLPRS
Description: Lineweaver–Burk plots / mode of MAO-A inhibition and Ki. The data set is classed as biochemical. On the procedure: (§3) These two compounds represent potent MAO inhibitors among the study compounds. […] Each line of the Lineweaver–Burk plots was constructed with the kynuramine concentration ranging from 15 to 250 μM.
(§4) The insets are replots of the slopes of the Lineweaver–Burk plots versus inhibitor concentration. The Ki value equals the negative of the x-axis intercept when y = 0
(§5) IC50 values for the inhibition of MAO were measured as described previously. Microsomes from insect cells containing recombinant human MAO-A and MAO-B (5 mg protein/mL) served as enzyme sources (Sigma-Aldrich) while kynuramine was used as non-specific MAO substrate. The enzyme reactions (200 µL reactions prepared in 96-well microtiter plates) contained phosphate buffer (100 mM, pH 7.4), 50 µM kynuramine and the test inhibitors at concentrations of 0.003–100 µM. Stock solutions of the test inhibitors were dissolved in DMSO and added to the enzyme reactions to give a final DMSO concentration of 4% (v/v). The reactions were initiated with addition of MAO-A (0.0075 mg protein/mL) or MAO-B (0.015 mg protein/mL) and after 20 min of incubation at 37 °C, the reactions were terminated by the addition of 80 µL NaOH (2 N). The concentration of 4-hydroxyquinoline, the product of kynuramine oxidation by MAO, was measured by fluorescence spectrophotometry (λex = 310 nm; λem = 400 nm). IC50 values were estimated from sigmoidal plots of enzyme catalytic rate versus the inhibitor concentration (log[I]) which were constructed with the Prism software package (GraphPad). IC50 values were estimated in triplicate determinations from these plots and are expressed as mean ± standard deviation (SD).
(§6) For each line, the concentration of kynuramine ranged from 15–250 µM.

Data set [3] concerns the target T2, recombinant human MAO-A. Description: MAO-A inhibition, IC50 determination with kynuramine as substrate (fluorescence of 4-hydroxyquinoline). The format is biochemical. Particulars: 50 µM kynuramine, mean ± SD of triplicate, NI = no inhibition observed at 100 µM. How it is done: as §1, §2
as §5, with “Stock solutions of the test inhibitors were dissolved in DMSO and added to the enzyme reactions to give a final DMSO concentration of 4% (v/v).” left out

The target in data set [4] is T1, recombinant human MAO-B. Description: Lineweaver–Burk plots / mode of MAO-B inhibition and Ki. The data set is classed as biochemical. How it is done: as §3, §4, §5, §6
The target of a further data set is human MAO-B. More on the design: method as in PMID 21175212. The following applies: competitive inhibitor; cited from earlier work.
[5] abbreviates: Lineweaver–Burk lines intersect on the y-axis.

Consider `c1ccc(-c2onc3ccc(C4OCCO4)cc23)cc1` [Compound 3l, 5-(1,3-Dioxolan-2-yl)-3-phenylbenzo[c]isoxazole], for which the melting point lay in the range of 137 to 138 °C. Besides, at recombinant human MAO-B [1], the “SI (selectivity index)” value was 0.20 and the IC50 stood at 27.3 ± 2.16 µM. For the same compound, at recombinant human MAO-A [2] (setting [5]), the “mode of MAO-A inhibition” value is on record as “competitive”. The Ki at recombinant human MAO-A [2] (global (shared) fitting of the inhibition data, read-out: Ki, MAO-A, global (shared) fitting to the Michaelis–Menten equation) is 500 ± 24 nM. Also, on recombinant human MAO-A [2] (replot of slopes versus inhibitor concentration, Ki = −x when y = 0, kynuramine 15–250 µM, read-out: Ki, MAO-A, from replot of slopes of Lineweaver–Burk plots), the Ki amounted to 460 nM. Moreover, the IC50 at recombinant human MAO-A [3] was found to be 5.35 ± 0.211 µM.

In turn, `N#Cc1ccc(-c2onc3c(Cl)cc(Cl)cc23)cc1` [Compound 7a, 4-(5,7-Dichlorobenzo[c]isoxazol-3-yl)benzonitrile] gave a melting point of 240 to 241 °C. Moreover, on recombinant human MAO-B [1], the “SI (selectivity index)” value was found to be 1138 and the IC50 is 0.017 ± 0.0045 µM. For the same compound, at recombinant human MAO-B [4] (setting [5]), the “mode of MAO-B inhibition” value is “competitive”. Further, on recombinant human MAO-B [4] (global (shared) fitting of the inhibition data, read-out: Ki, MAO-B, global (shared) fitting to the Michaelis–Menten equation), the Ki stood at 10 ± 1.5 nM. Besides, the inhibition constant (Ki) at recombinant human MAO-B [4] (replot of slopes versus inhibitor concentration, Ki = −x when y = 0, kynuramine 15–250 µM, read-out: Ki, MAO-B, from replot of slopes of Lineweaver–Burk plots) amounted to 6.2 nM. Besides, the IC50 at recombinant human MAO-A [3] was 19 ± 1.2 µM.

On to `NS(=O)(=O)Cc1noc2ccccc12` [Zonisamide, zonisamide], for which the Ki on human MAO-B was 3100 nM.
